These results are taken from patent publication US12268657B2, “Coenzyme Q10 composition, and preparation method and application thereof in cardio-protection” (Guangdong Runhe Biotechnology Co., Ltd, priority 2023, dated 2025).

The test system of this assay is myocardial ischemia rat models. In words: Protective effect on myocardial ischemia in rat model (coronary artery clamping). The format is in vivo. The settings on record: SD rats, 0.2 mg/kg per day for one week. How it is done: Specifically, several SD rats weighing about 200 g were selected to prepare myocardial ischemia rat models by a coronary artery clamping method. The successful-established model rats were uniformly divided into a blank group, a control group, and a treatment group, with 8 rats in each group. The blank group was not treated with any drug during the observation period, the control group was administered with 0.2 mg/kg of coenzyme Q10 per day for one week, and the treatment group was administered with 0.2 mg/kg of the coenzyme Q10 slow-release drug per day for one week. After the one-week administration, the myocardial infarction area, and superoxide dismutase (SOD) and malondialdehyde (MDA) content in the serum of the rats after artery ligation were recorded, and the results were shown in the table below. […] Moreover, after treatment with the slow-release drug, the activity of SOD was improved, and the generation of MDA was inhibited, which was favorable to reducing the occurrence of infarction.

With `COC1=C(OC)C(=O)C(C/C=C(\C)CC/C=C(\C)CC/C=C(\C)CC/C=C(\C)CC/C=C(\C)CC/C=C(\C)CC/C=C(\C)CC/C=C(\C)CC/C=C(\C)CCC=C(C)C)=C(C)C1=O` [coenzyme Q10, Coenzyme Q10], the “Myocardial infarction area (%)” value is 14.69 ± 1.14%. Also, for the setting “serum”, the “MDA” value is given as 6.57 ± 0.68 nmol/mL and the “SOD (NU/mL)” value is 220.34 ± 8.56 NU/mL.
